The values that follow come from patent publication US20230322789A1, “PYRAZOLOPYRIDAZINONE COMPOUND, AND PHARMACEUTICAL COMPOSITION AND USE THEREOF” (BroadenBio Co., Ltd., priority 2020, published 2023).

Molecules are shown by their SMILES. Where a name gives a salt, the structure may show the parent alone.

The target in one assay is HPK1 (Homo sapiens (Human), UniProt Q92918). The experiment in a line: HPK1 kinase activity inhibition test (ADP-Glo, luminescence). Format: biochemical. The conditions noted are these: HPK1 5 nM, ATP 2 μM, read-out: IC50, inhibitory effects of compounds on HPK1 kinase activity. As to the method:
1. HPK1 Kinase Activity Inhibition Test
The kinase activity of HPK1 is manifested as activity of autophosphorylation and phosphorylation of downstream substrates. In the process of autophosphorylation, additional substrates are not required, and ATP is consumed to generate ADP. The amount of the product was measured by ADP-Glo reagent and luminescence method to reflect kinase activity.
Test compounds: compounds prepared in the examples of this application.
Prepare compound stock solution: dissolve the compound to be tested in 100% DMSO to make a 10 mM stock solution;
Prepare 4× Kinase Reaction Buffer:
Prepare 2×HPK1 Kinase Solution:
Dilute the stock solution of the compound to be tested by 5 times with […], make a 4-fold equal dilution in a 96-well dilution plate, add 1 μL of the compound to 49 µL of kinase reaction buffer, and shake on a microplate shaker for 20 minutes. Transfer 2 μL of […] kinase solution to 384 reaction plate, add 1 μL of the test compound to the 384 reaction plate (Greiner, 784075), centrifuge for 1 minute (1000 rpm/min), incubate at 25° C. for 10 minutes. Transfer […] of the 4×ATP mixture to a 384 reaction plate, centrifuge for 1 minute (1000 rpm/mm), and incubate at 25° C. for 60 minutes. In the reaction system, the final concentration of DMSO was […]. Transfer 4 μL of ADP-Glo to a 384 reaction plate, centrifuge for 1 minute (1000 rpm/min), and incubate at 25° C. for 40 minutes. Transfer 8 μL detection solution to a 384 reaction plate, centrifuge for 1 minute (1000 rpm/min), and incubate at 25° C. for 40 minutes. The […] signal was read using a Biotek multi-function plate reader, and the […] (half inhibitory concentration) of the compound was obtained using a four-coefficient nonlinear fitting formula.
(ADP-Glo first removes unused ATP, then detects ADP through luciferase.)

In another assay the test system is Human Jurkat-E6-1 cells. The experiment in a line: Measurement of IL-2 secretion of Jurkat cells by ELISA. Format: cell-based. The conditions noted are these: Homo sapiens, Jurkat E6.1, anti-CD3/anti-CD28 stimulation 24 hours, read-out: Percentage of the amount of IL-2 secreted from compound treated/DMSO-treated cells; for activity at 1 µM: test compound 1.0 μM; for activity at 3 µM: test compound 3.0 μM. The procedure: 2. Measurement of IL-2 Secretion of Jurkat Cells by ELISA
Human Jurkat-E6-1 cells were incubated with various concentrations of test compounds for 30 minutes in a humidified incubator at 37° C. and […]. Cells were transferred to cell culture plates pre-coated with anti-human CD3 antibody, then soluble anti-human CD28 antibody was added, and cells were stimulated for 24 hours at 37° C. and 5% CO2 in a humidified incubator. The cell culture medium was collected by centrifugation, and was then transferred to a 96-well transparent microtiter plate (Thermo) pre-coated with anti-human IL-2 antibody, incubated at room temperature for 2 hours, and gently shaken, washed with washing buffer for 4 times, and then followed the ELISA MAX Deluxe Set Human IL-2 (BioLegend) kit procedure, used a microplate reader (Molecular Device, i3X) to read the GD value. The best standard curve was selected by the microplate reader application software, and the corresponding concentration was calculated according to the GD value of the standard. Results are expressed as a percentage of the amount of IL-2 secreted from compound-treated/DMSO-treated cells.
In general terms: ELISA stands for enzyme-linked immunosorbent assay.

Chain of HPK1 (Q92918 whole entry): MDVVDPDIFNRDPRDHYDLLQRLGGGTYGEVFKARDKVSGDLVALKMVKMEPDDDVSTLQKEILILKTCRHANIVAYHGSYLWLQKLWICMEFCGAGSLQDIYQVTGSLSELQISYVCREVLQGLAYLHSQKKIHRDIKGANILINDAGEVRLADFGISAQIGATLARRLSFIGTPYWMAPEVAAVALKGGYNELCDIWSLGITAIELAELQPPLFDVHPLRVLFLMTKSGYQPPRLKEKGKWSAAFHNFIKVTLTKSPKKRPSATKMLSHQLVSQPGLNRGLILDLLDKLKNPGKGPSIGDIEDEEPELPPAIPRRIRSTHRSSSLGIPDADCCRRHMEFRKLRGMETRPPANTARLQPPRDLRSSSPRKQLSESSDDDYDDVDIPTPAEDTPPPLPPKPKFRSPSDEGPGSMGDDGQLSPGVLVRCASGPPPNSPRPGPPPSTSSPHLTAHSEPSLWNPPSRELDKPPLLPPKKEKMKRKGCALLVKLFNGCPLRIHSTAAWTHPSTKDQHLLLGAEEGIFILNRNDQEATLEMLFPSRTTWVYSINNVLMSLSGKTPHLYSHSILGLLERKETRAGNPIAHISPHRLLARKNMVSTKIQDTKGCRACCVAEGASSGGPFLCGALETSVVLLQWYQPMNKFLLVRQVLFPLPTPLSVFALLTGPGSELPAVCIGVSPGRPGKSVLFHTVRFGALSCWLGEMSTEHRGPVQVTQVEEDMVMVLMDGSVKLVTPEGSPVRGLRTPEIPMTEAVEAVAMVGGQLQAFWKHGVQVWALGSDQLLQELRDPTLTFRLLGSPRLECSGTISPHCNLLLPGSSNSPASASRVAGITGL

Usually IC50 stands for the point on the concentration scale where inhibition reaches its midpoint. As for `Cc1cccc(F)c1-n1nc2c(-c3ccc(N4CCN(C)CC4)cc3)n[nH]c2cc1=O` [Compound 1, 5-(2-fluoro-6-methylphenyl)-3-(4-(4-methylpiperazin-1-yl)phenyl)-1H-pyrazolo[4,3-c]pyridazin-6(5H)-one], the IC50 at HPK1 was not above 50 nM. Further, the activity at 1 µM with Human Jurkat-E6-1 cells was 277%.

Take `COc1cccc(C)c1-n1nc2c(-c3ccc(N4CCN(C)CC4)cc3)n[nH]c2cc1=O` [Compound 2, 5-(2-methoxy-6-methylphenyl)-3-(4-(4-methylpiperazin-1-yl)phenyl)-1H-pyrazolo[4,3-c]pyridazin-6(5H)-one]: on HPK1, the 50% inhibitory concentration (IC50) is 50 to 500 nM. Also, the activity at 3 µM with Human Jurkat-E6-1 cells was 238%.

`COc1ccccc1-n1nc2c(-c3ccc(N4CCN(C)CC4)cc3)n[nH]c2cc1=O` [Compound 3, 5-(2-methoxyphenyl)-3-(4-(4-methylpiperazin-1-yl)phenyl)-1H-pyrazolo[4,3-c]pyridazin-6(5H)-one]: the concentration for half-maximal inhibition (IC50) on HPK1 was not above 50 nM. The activity at 1 µM with Human Jurkat-E6-1 cells was determined as 211%.

In the case of `Cc1ccccc1-n1nc2c(-c3ccc(N4CCN(C)CC4)cc3)n[nH]c2cc1=O` [Compound 5, 5-(2-methylphenyl)-3-(4-(4-methylpiperazin-1-yl)phenyl)-1H-pyrazolo[4,3-c]pyridazin-6(5H)-one], the 50% inhibitory concentration (IC50) on HPK1 was 50 to 500 nM. Besides, the activity at 1 µM with Human Jurkat-E6-1 cells is 162%.

Turning to `CN1CCN(c2ccc(-c3n[nH]c4cc(=O)n(-c5ccccc5F)nc34)cc2)CC1` [Compound 6, 5-(2-fluorophenyl)-3-(4-(4-methylpiperazin-1-yl)phenyl)-1H-pyrazolo[4,3-c]pyridazin-6(5H)-one], the IC50 on HPK1 was not above 50 nM. For the same molecule, the activity at 1 µM in the assay on Human Jurkat-E6-1 cells was determined as 185%.

Turning to `CN1CCN(c2ccc(-c3n[nH]c4cc(=O)n(-c5ccccc5Cl)nc34)cc2)CC1` [Compound 7, 5-(2-chlorophenyl)-3-(4-(4-methylpiperazin-1-yl)phenyl)-1H-pyrazolo[4,3-c]pyridazin-6(5H)-one], the IC50 at HPK1 lay in the range of 50 to 500 nM. Further, the activity at 1 µM with Human Jurkat-E6-1 cells stood at 314%.

Regarding `CCc1cccc(F)c1-n1nc2c(-c3ccc(N4CCN(C)CC4)cc3)n[nH]c2cc1=O` [Compound 8, 5-(2-ethyl-6-fluorophenyl)-3-(4-(4-methylpiperazin-1-yl)phenyl)-1H-pyrazolo[4,3-c]pyridazin-6(5H)-one], on HPK1, the IC50 was not above 50 nM. Also, the activity at 0.33 µM with Human Jurkat-E6-1 cells (test compound 0.33 μM) was 306%.

As for `COc1cccc(F)c1-n1nc2c(-c3ccc(N4CCN(C)CC4)cc3)n[nH]c2cc1=O` [Compound 9, 5-(2-fluoro-6-methoxyphenyl)-3-(4-(4-methylpiperazin-1-yl)phenyl)-1H-pyrazolo[4,3-c]pyridazin-6(5H)-one], the IC50 on HPK1 was not above 50 nM. Also, the activity at 3 µM in the assay on Human Jurkat-E6-1 cells came out at 188%.

With `Cc1cccc(F)c1-n1nc2c(-c3ccc(N4CCN(C)CC4)nc3)n[nH]c2cc1=O` [Compound 11, 5-(2-fluoro-6-methylphenyl)-3-(6-(4-methylpiperazin-1-yl)pyrid-3-yl)-1H-pyrazolo[4,3-c]pyridazin-6(5H)-one], the half-maximal inhibitory concentration (IC50) on HPK1 fell in the range of 50 to 500 nM. In the assay with Human Jurkat-E6-1 cells, the activity at 1 µM amounted to 296%.

Consider `Cc1cc(-c2n[nH]c3cc(=O)n(-c4c(C)cccc4F)nc23)cc(C)c1N1CCN(C)CC1` [Compound 13], for which the half-inhibitory concentration (IC50) at HPK1 was in the range of 50 to 500 nM. In addition, in the assay on Human Jurkat-E6-1 cells, the activity at 3 µM came out at 315%.

Consider `COc1cc(-c2n[nH]c3cc(=O)n(-c4c(C)cccc4F)nc23)ccc1N1CCN(C)CC1` [Compound 14, 5-(2-fluoro-6-methylphenyl)-3-(3-methoxy-4-(4-methylpiperazin-1-yl)phenyl)-1H-pyrazolo[4,3-c]pyridazin-6(5H)-one], for which the IC50 at HPK1 was in the range of 50 to 500 nM. In addition, the activity at 3 µM in the assay on Human Jurkat-E6-1 cells turned out to be 255%.

In the case of `COc1cc(N2CCN(C)CC2)ccc1-c1n[nH]c2cc(=O)n(-c3c(C)cccc3F)nc12` [Compound 16, 5-(2-fluoro-6-methylphenyl)-3-(2-methoxy-4-(4-methylpiperazin-1-yl)phenyl)-1H-pyrazolo[4,3-c]pyridazin-6(5H)-one], the IC50 on HPK1 fell in the range of 500 to 2000 nM. Further, the activity at 1 µM in the assay with Human Jurkat-E6-1 cells was determined as 156%.

As for `COc1cccc(F)c1-n1nc2c(-c3cnn(C4CCN(C)CC4)c3)n[nH]c2cc1=O` [Compound 20], the half-inhibitory concentration (IC50) at HPK1 is 50 to 500 nM. For the same molecule, the activity at 1 µM with Human Jurkat-E6-1 cells turned out to be 329%.

With `CCc1cccc(F)c1-n1nc2c(-c3ccc(N4CCN(CC(C)(C)O)CC4)cc3)n[nH]c2cc1=O` [Compound 116, 5-(2-ethyl-6-fluorophenyl)-3-(4-(4-(2-hydroxyl-2-methylpropyl)piperazin-1-yl)phenyl)-1H-pyrazolo[4,3-c]pyridazin-6(5H)-one], the activity at 1 µM in the assay on Human Jurkat-E6-1 cells is 193%.

Take `Cc1cccc(F)c1-n1nc2c(-c3ccc(N4CCN5C(=O)OCC5C4)nc3)n[nH]c2cc1=O` (stereo not shown) [Compound 129, 7-(5-(5-(2-fluoro-6-methylphenyl)-6-oxo-5,6-dihydro-1H-pyrazolo[4,3-c]pyridazin-3-yl)pyridin-2-yl)tetrahydro-1H-oxazolo[3,4-a]pyrazin-3(5H)-one]: in the assay with Human Jurkat-E6-1 cells, the activity at 3 µM came out at 807%.

For the molecule `Cc1cccc(F)c1-n1nc2c(-c3ccc4c(c3)CCN(C3CCN(C)CC3)C4)n[nH]c2cc1=O` [Compound 196, 5-(2-fluoro-6-methylphenyl)-3-(2-(1-methylpiperidin-4-yl)-1,2,3,4-tetrahydroisoquinolin-6-yl)-1H-pyrazolo[4,3-c]pyridazin-6(5H)-one hydrochloride], the IC50 on HPK1 lay within 50 to 500 nM.

Consider `Cc1cccc(F)c1-n1nc2c(-c3ccc4c(c3)CN(C)C4)n[nH]c2cc1=O` [Compound 197, 5-(2-fluoro-6-methylphenyl)-3-(2-methylisoindolin-5-yl)-1H-pyrazolo[4,3-c]pyridazin-6(5H)-one], for which the half-inhibitory concentration (IC50) on HPK1 was not above 50 nM.

Consider `Cc1cccc(F)c1-n1nc2c(-c3cccc(N4CC5CCC(C4)N5C)c3)n[nH]c2cc1=O` [Compound 201, 5-(2-fluoro-6-methylphenyl)-3-(3-(8-methyl-3,8-diazabicyclo[3.2.1]octan-3-yl)phenyl)-1H-pyrazolo[4,3-c]pyridazin-6(5H)-one], for which the half-maximal inhibitory concentration (IC50) at HPK1 is not above 50 nM.

As for `COc1cc(C#N)cc(F)c1-n1nc2c(-c3cccc(N4CC5CCC(C4)N5C)c3)n[nH]c2cc1=O` [Compound 203, 3-fluoro-5-methoxy-4-(3-(3-(8-methyl-3,8-diazabicyclo[3.2.1]octan-3-yl)phenyl)-6-oxo-1H-pyrazolo[4,3-c]pyridazin-5(6H)-yl)benzonitrile], the IC50 on HPK1 was not above 50 nM.

Take `COc1cccc(F)c1-n1nc2c(-c3cccc(N4CCC(N)CC4)c3)n[nH]c2cc1=O` [Compound 205, 3-(3-(4-aminopiperidin-1-yl)phenyl)-5-(2-fluoro-6-methoxyphenyl)-1H-pyrazolo[4,3-c]pyridazin-6(5H)-one]: the IC50 on HPK1 was not above 50 nM.

With `COc1cccc(F)c1-n1nc2c(-c3cccc(N4CCC(O)CC4)c3)n[nH]c2cc1=O` [Compound 206, 3-(3-(4-hydroxylpiperidin-1-yl)phenyl)-5-(2-fluoro-6-methoxyphenyl)-1H-pyrazolo[4,3-c]pyridazin-6(5H)-one], the half-maximal inhibitory concentration (IC50) on HPK1 lay within 50 to 500 nM.

As for `Cc1cccc(F)c1-n1nc2c(-c3cccc(N4CCN(C)CC4)c3F)n[nH]c2cc1=O` [Compound 207, 3-(2-fluoro-3-(4-methylpiperazin-1-yl)phenyl)-5-(2-fluoro-6-methylphenyl)-1H-pyrazolo[4,3-c]pyridazin-6(5H)-one], at HPK1, the half-maximal inhibitory concentration (IC50) fell in the range of 500 to 2000 nM.

As for `Cc1cccc(F)c1-n1nc2c(-c3cc(N4CCN(C)CC4)ccc3F)n[nH]c2cc1=O` [Compound 208, 3-(2-fluoro-5-(4-methylpiperazin-1-yl)phenyl)-5-(2-fluoro-6-methylphenyl)-1H-pyrazolo[4,3-c]pyridazin-6(5H)-one], the 50% inhibitory concentration (IC50) on HPK1 is not above 50 nM.

With `COc1cccc(F)c1-n1nc2c(-c3cccc(N4CCN(C)CC4)c3F)n[nH]c2cc1=O` [Compound 209, 3-(2-fluoro-3-(4-methylpiperazin-1-yl)phenyl)-5-(2-fluoro-6-methoxyphenyl)-1H-pyrazolo[4,3-c]pyridazin-6(5H)-one], the IC50 at HPK1 was in the range of 50 to 500 nM.
